Structures are written as SMILES. The source made the active and inactive calls. Rule as the data show it: active = IC50 below about 71 µM; inactive = the rest. Some results are limits rather than exact numbers.

The assay deals with S. cerevisiae tim10 strain, luminescence counterscreen. Put plainly: signal inhibition in TIM10 yeast counter-screen, dose response, counter-screen for tim23-1 inhibitor project, luminescence, S. cerevisiae, uHTS hits (AID 504672).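 Also: yeast grew roughly 22 hours at 25 °C before the luminescence read.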
What is called IC50 is the midpoint of a concentration-inhibition curve. Regarding `CCN(CC)c1ccc(/C=N/NC(=O)c2ccc3c(c2)OCCO3)cc1`, the concentration for half-maximal inhibition (IC50) is 11.5 µM.

Turning to `Cc1[nH]c2ccccc2c1C(=O)/C=C/c1ccccc1`, the 50% inhibitory concentration (IC50) is 12.9 µM.

Consider `O=C(Oc1ccc(=O)n(-c2ccccc2)n1)c1ccc(Cl)cc1`, for which the IC50 was 34.7 µM.

On to `Cc1cc(Nc2ccccc2)nn1C(=O)c1ccccc1`, for which the concentration for half-maximal inhibition (IC50) was 11.3 µM.

Consider `Nc1cc([N+](=O)[O-])cc2oc(-c3ccccc3)cc12`, for which the half-maximal inhibitory concentration (IC50) was 23.9 µM.

Take `CC[C@@]1(c2ccccc2OC)ON(c2ccccc2C(F)(F)F)C1=O`: the IC50 is 4.27 µM.

For `CC1CCc2c(c3ccccc3n2C(=O)CCl)C1` (stereo not drawn), the 50% inhibitory concentration (IC50) was 5.12 µM.

As for `COc1cc(OC)cc(C(=O)Nc2ccc(Nc3ccccc3)cc2)c1`, the IC50 is 27.3 µM.

Turning to `Cc1csc2nc(O)c(C(=O)NCCCc3ccccc3)c(=O)n12`, the IC50 was 8.44 µM.

Regarding `O=C(NCCCc1ccccc1)c1c(O)nc2sccn2c1=O`, the half-maximal inhibitory concentration (IC50) was 4.09 µM.

As to `COc1cc(/C=C/[N+](=O)[O-])ccc1OC(=O)c1cc2ccccc2oc1=O`, the IC50 is 3.42 µM.

Regarding `Cc1ccc(-c2nnc(N3CCN(c4ccccn4)CC3)c3ccccc23)cc1`, the IC50 is 13.1 µM.

Turning to `CC1(C)c2cc(Cl)ccc2-n2c1cc(O)c(-c1ccccc1)c2=O`, the IC50 is 11.5 µM.

As for `COc1ccc(CCN(/C=C2\Sc3ccccc3C2=O)C(C)=O)cc1OC`, the concentration for half-maximal inhibition (IC50) was 26.3 µM.

For the molecule `CN(C)/C=C1/C=C(c2ccccc2)OC1=O`, the IC50 was 36.8 µM.

Take `Cn1c(C(=O)Nc2ccc3c(c2)OCCO3)cc2sccc21`: the half-inhibitory concentration (IC50) was 7.59 µM.

Turning to `O=Cc1ccccc1OCc1ccc2c(c1)OCO2`, the IC50 was 5.65 µM.

Regarding `Cc1nc(-c2ccc(NC(=O)c3ccccc3)cc2)cs1`, the 50% inhibitory concentration (IC50) was 8.18 µM.

In the case of `COn1c(=O)c(-c2cccs2)[n+]([O-])c2ccccc21`, the concentration for half-maximal inhibition (IC50) is 6.58 µM.

On to `NC(=S)N/N=C/c1coc2ccc(Br)cc2c1=O`, for which the IC50 was 5.78 µM.

As to `Cc1ccc(NC(=O)c2ccc3c(c2)OCCO3)cc1C`, the IC50 was 4.16 µM.

For the molecule `O=Cc1cn(CCOc2ccccc2F)c2ccccc12`, the IC50 was 22.3 µM.

With `C=C1CCc2c([nH]c3ccc(OCC(C)C)cc23)C1=O`, the 50% inhibitory concentration (IC50) is 24.3 µM.

Take `O=c1oc(Cl)c(Cl)c2ccccc12`: the IC50 was 20.1 µM.

`CC1(S(=O)(=O)O)CC(=O)c2ccccc2C1=O` (stereo not drawn): the IC50 was 7.14 µM.

Consider `Cn1c(-c2sc3ccccc3c2Cl)n[nH]c1=S`, for which the IC50 is 5.74 µM.

For the molecule `COCCNC(=O)/C(C#N)=C/c1ccc(OCc2ccc(F)cc2)cc1`, the half-maximal inhibitory concentration (IC50) is 11.3 µM.

`O=C(Nc1ccc(-c2cn3c(n2)SCC3)cc1)c1ccco1`: the IC50 was 38.3 µM.

As for `CCOC(=O)Nc1ccc2c(c1)Nc1ccccc1S2`, the IC50 is 12.7 µM.

Turning to `O=C(COC(=O)CC1CCCC1)Nc1ccc(Cl)cc1`, the IC50 is 7.89 µM.

Turning to `c1ccc2[nH]c(-c3ccc4c(c3)OCO4)nc2c1`, the half-inhibitory concentration (IC50) was 12.4 µM.

Turning to `COc1ccc(OC)c(-c2csc(NC(=O)Cc3ccc(F)cc3)n2)c1`, the concentration for half-maximal inhibition (IC50) was 27.7 µM.

With `CCOC(=O)c1sc(=NC(=O)c2ccco2)n(C)c1C`, the concentration for half-maximal inhibition (IC50) is 46.5 µM.

Turning to `O=C(Nc1ccc2c(c1)OCCO2)c1cccc(Cl)c1`, the concentration for half-maximal inhibition (IC50) was 21.5 µM.

Turning to `O=C(Nc1ccc2oc(-c3ccccc3)nc2c1)c1cccs1`, the IC50 was less than 0.2 µM.

Turning to `O=C1/C(=C/c2ccncc2)SC(=S)N1C1CCCCC1`, the IC50 is 27.4 µM.

Consider `Cc1cc2cc(CNC(=O)c3ccc(C)c([N+](=O)[O-])c3)ccc2[nH]1`, for which the IC50 was 31 µM.

On to `CC(C)Cn1cnc2c(c(-c3ccccc3)c(-c3ccccc3)n2Cc2ccco2)c1=N`, for which the half-maximal inhibitory concentration (IC50) was 42.3 µM.

Regarding `N#C/C(=C\c1ccc(O)cc1)c1nc2ccccc2o1`, the 50% inhibitory concentration (IC50) was 17.6 µM.

With `Cc1ccc(-c2nn(-c3ccccc3)cc2NC(=O)CCl)cc1`, the IC50 was 26.7 µM.

On to `O=C(Nc1ccc(-c2cn3ccccc3n2)cc1)c1ccco1`, for which the IC50 was 17.5 µM.

Turning to `CC(C)OC(=O)c1cccnc1SCc1cc(=O)n2ccccc2n1`, the IC50 is 42.4 µM.

For `Cc1ccc2c(c1)C(=O)N1[C@H]3c4ccccc4OC[C@@H]3[C@H](c3ccccc3)[C@]1(C)C(=O)N2`, the half-inhibitory concentration (IC50) is 3.54 µM.

Regarding `CC(C(Sc1ccccc1N)c1ccccc1)[N+](=O)[O-]` (stereo not drawn), the IC50 is 5.26 µM.

With `O=C1NC(=S)SC1=C1CCCCCC1`, the IC50 is 14.1 µM.

For the molecule `c1ccc2[nH]c(CSc3nc4ccccc4o3)nc2c1`, the IC50 was 18.6 µM.

As for `O=[N+]([O-])c1cc(O)c2ncccc2c1`, the IC50 was 7.75 µM.

With `COC(=O)c1ccc2nc(NC(=O)C3CC3)sc2c1`, the 50% inhibitory concentration (IC50) is 15.3 µM.

In the case of `O=C(Nc1ccc2oc(-c3ccccc3)nc2c1)c1cccnc1`, the IC50 was 10.8 µM.

Take `Cc1cccc(OCCN2C(=O)C(=O)c3cc(C)ccc32)c1`: the IC50 is 11.6 µM.

For the molecule `Clc1nssc1=Nc1nncs1`, the IC50 is 2.6 µM.

For the molecule `O=C(CSc1ccccc1)N/N=C/c1ccccc1O`, the half-inhibitory concentration (IC50) is 10.9 µM.

Turning to `CCCCCCn1c(=O)c(-c2ccccc2)c(O)c2ccccc21`, the 50% inhibitory concentration (IC50) is 11.4 µM.

In the case of `Cc1ccc(-c2nc3ccccc3[nH]2)s1`, the IC50 was 16.4 µM.

In the case of `Cc1ccc(-c2nc(CNC(=O)c3cc(C)on3)cs2)cc1`, the concentration for half-maximal inhibition (IC50) was 19.8 µM.

Turning to `O=C(NCCCc1ccccc1)Nc1cccc(Cl)c1`, the IC50 is 5.13 µM.

For the molecule `CC(C)(C)c1csc(NC(=O)c2ccc(Cl)s2)n1`, the IC50 was 24.6 µM.

As for `Cc1cccc(C(=O)Oc2cccc3c(O)cccc23)c1`, the half-inhibitory concentration (IC50) was 8.12 µM.

With `Cc1oc2cc(O)cc(O)c2c(=O)c1-c1ccc2c(c1)OCCCO2`, the IC50 was 10.7 µM.

For the molecule `N#C/C(=C\c1ccc(Cl)cc1)C(=O)Nc1cccnc1`, the IC50 is 24.3 µM.

Take `O=C(Oc1cccc2c(O)cccc12)c1ccccc1`: the IC50 is 4.84 µM.

On to `O=C(N/N=C/c1ccco1)c1cc2ccccc2o1`, for which the concentration for half-maximal inhibition (IC50) is 22.2 µM.

Take `CN1CCc2nc3sc(C(=O)C45CC6CC(CC(C6)C4)C5)c(N)c3cc2C1`: the IC50 is 86.3 µM.

In the case of `Cc1ccc(C(=O)Nc2nc(C(C)(C)C)cs2)s1`, the IC50 is 20.9 µM.

Turning to `Brc1ccc(-n2cnc(-c3ccccc3)c2)cc1`, the IC50 is 17.4 µM.

In the case of `O=C(N/N=C/c1coc2ccc(Cl)cc2c1=O)c1ccncc1`, the concentration for half-maximal inhibition (IC50) is 87.1 µM.

For `O=C(NCc1ccc2c(c1)OCO2)c1c(O)nc2sccn2c1=O`, the IC50 was 1.63 µM.

With `CCC(C)c1ccc(NC(=O)C2CC3CCC2C3)cc1` (stereo not drawn), the IC50 was 19.4 µM.

For `Cc1ccccc1C(=O)Oc1cccc2c(O)cccc12`, the IC50 is 13.8 µM.

Turning to `O=C(Nc1ccc(C(=O)N2CCCc3ccccc32)cc1)c1cccs1`, the half-maximal inhibitory concentration (IC50) is 15.2 µM.

As to `O=c1c2ccccc2nc(-c2ccc([N+](=O)[O-])cc2)n1O`, the IC50 was 4.86 µM.

Turning to `O=C(Nc1cc(-c2ccccc2)[nH]n1)c1ccccc1`, the IC50 is 43.3 µM.

As for `Cc1ccccc1OCCCSc1nc2ccccc2[nH]1`, the IC50 was 6.45 µM.

Take `CC(C)n1ncc2c(C(=O)NCC(=O)Nc3ccccc3Br)cc(C3CC3)nc21`: the 50% inhibitory concentration (IC50) was 27.8 µM.

For the molecule `Cc1ccc2occ(/C=N/NC(=O)c3ccccc3Br)c(=O)c2c1`, the half-inhibitory concentration (IC50) is 17.3 µM.

Take `CCc1cccc2c(C(=O)CCl)c[nH]c12`: the half-maximal inhibitory concentration (IC50) is 25.1 µM.

`CCc1ccc2oc(-c3cc(N)ccc3Cl)nc2c1`: the IC50 is 17 µM.

For the molecule `O=C1OC(c2ccccc2)=N/C1=C\C=C\c1ccco1`, the IC50 was > 100 µM (inactive).

For `O=C(/C=C\Nc1cccc(F)c1)c1cccs1`, the half-inhibitory concentration (IC50) is 16.6 µM.

With `Cc1nc2ccccc2c(=O)n1/N=C/c1cc(Br)ccc1O`, the IC50 is 10.8 µM.

On to `c1ccc(-c2cc3ccccc3cn2)cc1`, for which the IC50 is 7.8 µM.

For the molecule `Cc1cc(=O)oc2c1c(C(F)(F)F)nn2-c1ccccc1`, the IC50 was 6.41 µM.

On to `COc1ccc(C(C[N+](=O)[O-])c2c(-c3ccccc3)cc3ccccn23)cc1OC` (stereo not drawn), for which the 50% inhibitory concentration (IC50) is 21 µM.

As to `O=C(c1cc(-c2ccc(O)cc2)on1)N1CCc2ccccc2C1`, the IC50 was 17.1 µM.

Turning to `COc1ccc(C(=O)Nc2nc3ccccc3s2)c(OC)c1`, the 50% inhibitory concentration (IC50) is 7.13 µM.

As for `O=C(Nc1ccccc1N(C(=O)c1ccco1)S(=O)(=O)c1cccs1)c1ccco1`, the IC50 is 19.4 µM.

Turning to `Cc1ccc(SCC(=O)OCn2nnc3ccccc3c2=O)cc1C`, the IC50 is 15.6 µM.

As for `CC(C)(C)c1ccc(OCC(=O)NCc2ccco2)c(Br)c1`, the IC50 was 12.2 µM.

Consider `O=c1c(O)c(-c2ccccc2)oc2cc(O)cc(O)c12`, for which the IC50 is 35.5 µM.

Take `O=C1/C(=C/c2cccs2)COc2ccccc21`: the half-maximal inhibitory concentration (IC50) is 7.66 µM.

Turning to `COc1cc(NC(=O)c2cccs2)ccc1NC(=O)c1ccccc1Cl`, the IC50 is 16.2 µM.

Take `O=[N+]([O-])c1ccc(N/N=C/c2cccc(O)c2)cc1`: the IC50 was 6.08 µM.

In the case of `O=C1Nc2ccccc2/C1=C/c1ccccc1Cl`, the IC50 was 8.06 µM.

For the molecule `Cc1ccc(S(=O)(=O)n2ccc(OC(=O)c3cccs3)n2)cc1`, the 50% inhibitory concentration (IC50) is 8.32 µM.

Turning to `Cc1ccc(S(=O)(=O)Oc2ccccc2C=C2C(=O)N(C)C(=O)N(C)C2=O)cc1`, the IC50 is 4.57 µM.

As for `COc1cc2c3c(c1)C(C)CC(C)(C)N3C(=O)C2=O` (stereo not drawn), the concentration for half-maximal inhibition (IC50) was 13.8 µM.

With `CCOC(=O)c1c(NC(=O)CSc2nnnn2-c2ccc(OC)cc2)sc(C)c1C`, the IC50 is 11.6 µM.

For `O=c1/c(=C/c2cccc3ccccc23)sc2ncnn12`, the half-maximal inhibitory concentration (IC50) is 16.7 µM.

Turning to `O=C(COc1ccccc1)N/N=C/c1ccc([N+](=O)[O-])o1`, the IC50 was 10.8 µM.

Consider `Oc1ccc(/C=N/Nc2cccc(Cl)n2)c(O)c1`, for which the IC50 is 14.9 µM.

With `N#C/C(=C/c1ccc(N2CCOCC2)o1)c1nc2ccccc2[nH]1`, the IC50 is 26.6 µM.

As for `Cc1csc2nc(O)c(C(=O)NCCC3=CCCCC3)c(=O)n12`, the IC50 is 3.43 µM.

`Cc1ccc(NC(=S)NC(=O)C2CC2)cc1Cl`: the 50% inhibitory concentration (IC50) was 8.83 µM.

In the case of `O=C(N/N=C/C(Br)=C/c1ccccc1)c1cccs1`, the concentration for half-maximal inhibition (IC50) is 8.5 µM.

With `CN1C(=O)C(=Cc2ccccc2OS(=O)(=O)c2ccccc2)C(=O)N(C)C1=O`, the IC50 is 5.92 µM.

As for `CCOC(=O)c1cnc(-n2nc(C)cc2C)nc1NCCc1ccccc1`, the 50% inhibitory concentration (IC50) is 8.35 µM.

On to `CC(C)(C)c1ccc(Oc2ccc(N)cc2)cc1`, for which the concentration for half-maximal inhibition (IC50) is 13.7 µM.

In the case of `COc1cccc(C(=O)Nc2ccccc2)c1`, the concentration for half-maximal inhibition (IC50) is 24.4 µM.

(Values after PubChem BioAssay AID504672 (Sanford-Burnham Center for Chemical Genomics, 2011).)
